Experimental data: US20250115591A1, “NOVEL SULFONAMIDE CARBOXAMIDE COMPOUNDS” (INFLAZOME LIMITED, priority 2017, published 2025)
Counter-ions that a name gives are not always drawn.

What was measured:
NLRP3 [1] = target: T1, NLRP3 (Homo sapiens (Human), UniProt Q96P20); experiment: THP-1 cells pyroptosis assay (LPS + nigericin, resazurin read-out); type: cell-based; conditions: 1 μg/ml LPS, 5 μM nigericin
Method in brief: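 LPS-primed (1 μg/ml) human THP-1 cells in serum-free RPMI were exposed to compound (8-point half-log series, top dose as printed "10M") for 3 h at 37 °C, then to nigericin 5 μM for 1 h. Remaining viability was read by resazurin (100 μM, 1-2 h) fluorescence, and IC50 came from 4-parameter variable-slope regression.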

NLRP3 [2] = target: T1, NLRP3; experiment: Human whole blood IL1β release assay (LPS + nigericin); type: cell-based; conditions: human whole blood, 1 μg/ml LPS, nigericin, IL-1β release; read-out: HWB IC50
Procedure: For systemic delivery, the ability to inhibit NLRP3 when the compounds are present within the bloodstream is of great importance. For this reason, the NLRP3 inhibitory activity of a number of compounds in human whole blood was investigated in accordance with the following protocol.
Human whole blood in Li-heparin tubes was obtained from healthy donors from a volunteer donor panel. • 1. Plate out 80 μl of whole blood containing 1 μg/ml of LPS in 96-well, clear bottom cell culture plate (Corning #3585) • 2. Add 10 μl compound (8 points half-log dilution with 10 μM top dose) or vehicle (DMSO 0.1% FAC) to the appropriate wells • 3. Incubate for 3 hrs at 37° C., 5% CO2 • 4. Add 10 μl nigericin (Sigma #N7143) ([…]) to all wells • 5. Incubate for 1 hr at 37° C., 5% CO2 • 6. At the end of the incubation period, spin plates at 30×g for 5 mins to pellet cells and remove 20 μl of supernatant and add to 96-well v-bottom plates for IL-1β analysis (note: these plates containing the supernatants can be stored at −80° C. to be analysed at a later date) • 7. IL-1β was measured according to the manufacturer protocol (Perkin Elmer-AlphaLisa IL-Kit A[220F-5000) • 8. IC50 data is fitted to a non-linear regression equation (log inhibitor vs response-variable slope 4-parameters)

T1 sequence (Q96P20 whole entry): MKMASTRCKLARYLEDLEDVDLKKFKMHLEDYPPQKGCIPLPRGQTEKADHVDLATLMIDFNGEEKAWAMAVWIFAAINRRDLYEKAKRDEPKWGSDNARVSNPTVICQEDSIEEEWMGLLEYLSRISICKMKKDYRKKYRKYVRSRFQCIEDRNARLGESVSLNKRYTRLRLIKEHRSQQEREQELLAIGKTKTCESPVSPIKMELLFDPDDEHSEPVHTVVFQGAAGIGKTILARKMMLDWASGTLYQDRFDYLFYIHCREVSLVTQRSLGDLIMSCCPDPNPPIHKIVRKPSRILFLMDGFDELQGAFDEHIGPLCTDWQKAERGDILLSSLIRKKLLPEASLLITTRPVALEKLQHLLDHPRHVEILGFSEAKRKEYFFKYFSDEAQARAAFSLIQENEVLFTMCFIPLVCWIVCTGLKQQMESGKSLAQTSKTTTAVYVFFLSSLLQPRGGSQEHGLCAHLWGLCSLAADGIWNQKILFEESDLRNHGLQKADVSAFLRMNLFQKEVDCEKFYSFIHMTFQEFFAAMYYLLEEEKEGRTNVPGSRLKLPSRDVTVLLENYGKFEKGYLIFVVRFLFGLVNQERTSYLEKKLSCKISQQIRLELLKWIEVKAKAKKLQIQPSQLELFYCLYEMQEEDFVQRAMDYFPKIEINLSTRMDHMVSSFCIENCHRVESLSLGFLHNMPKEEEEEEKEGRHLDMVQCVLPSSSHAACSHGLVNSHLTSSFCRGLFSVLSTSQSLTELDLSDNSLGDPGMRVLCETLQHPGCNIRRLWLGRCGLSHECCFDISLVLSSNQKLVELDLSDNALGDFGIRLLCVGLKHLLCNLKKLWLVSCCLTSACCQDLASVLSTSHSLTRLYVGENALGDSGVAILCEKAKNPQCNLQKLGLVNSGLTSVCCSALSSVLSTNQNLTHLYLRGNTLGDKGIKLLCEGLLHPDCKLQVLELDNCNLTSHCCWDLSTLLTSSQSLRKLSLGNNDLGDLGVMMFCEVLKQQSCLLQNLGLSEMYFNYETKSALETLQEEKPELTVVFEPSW

Row | Structure (SMILES) | IC50 (NLRP3 [1]) | IC50 (NLRP3 [2])
1 | CC(O)CN1CC(S(=O)(=O)NC(=O)Nc2c3c(cc4c2CCC4)CCC3)C1 (stereo not drawn) [Example 137, N-((1,2,3,5,6,7-Hexahydro-s-indacen-4-yl)carbamoyl)-1-(2-hydroxypropyl)azetidine-3-sulfonamide, potassium salt] | < 1000 nM | 1000 to 10000 nM
2 | CC(C)CN1CC(S(=O)(=O)NC(=O)Nc2c3c(cc4c2CCC4)CCC3)C1 [Example 97, N-((1,2,3,5,6,7-Hexahydro-s-indacen-4-yl)carbamoyl)-1-isobutylazetidine-3-sulfonamide, potassium salt] | < 1000 nM | < 1000 nM
3 | COC(=O)N1CCC(S(=O)(=O)NC(=O)Nc2c3c(cc4c2CCC4)CCC3)CC1 [Example 13, Methyl 4-(N-((1,2,3,5,6,7-hexahydro-s-indacen-4-yl)carbamoyl)sulfamoyl)piperidine-1-carboxylate, potassium salt] | < 1000 nM | > 10000 nM
4 | O=C(Nc1c2c(cc3c1CCC3)CCC2)NS(=O)(=O)C1CCCN(CCF)C1 (stereo not drawn) [Example 34, 1-(2-Fluoroethyl)-N-((1,2,3,5,6,7-hexahydro-s-indacen-4-yl)carbamoyl)piperidine-3-sulfonamide, potassium salt] | < 1000 nM | 1000 to 10000 nM
5 | O=C(Nc1c2c(cc3c1CCC3)CCC2)NS(=O)(=O)C1CN(C(=O)OCc2ccccc2)C1 [Example 71, Benzyl 3-(N-((1,2,3,5,6,7-hexahydro-s-indacen-4-yl)carbamoyl)sulfamoyl)azetidine-1-carboxylate, potassium salt] | < 1000 nM | > 10000 nM
6 | O=C(Nc1c2c(cc3c1CCC3)CCC2)NS(=O)(=O)C1CN(CCCO)C1 [Example 134, N-((1,2,3,5,6,7-Hexahydro-s-indacen-4-yl)carbamoyl)-1-(3-hydroxypropyl)azetidine-3-sulfonamide, potassium salt] | < 1000 nM | 1000 to 10000 nM
7 | COc1cc(-c2cc(F)cc(C(C)C)c2NC(=O)NS(=O)(=O)c2ccc(=O)n(C(C)C)c2)ccn1 [Example 173, N-((4-Fluoro-2-isopropyl-6-(2-methoxypyridin-4-yl)phenyl)carbamoyl)-1-isopropyl-6-oxo-1,6-dihydropyridine-3-sulfonamide] | < 1000 nM | < 1000 nM
8 | COc1cc(-c2cc(F)cc(C(C)C)c2NC(=O)NS(=O)(=O)C2CN(C(C)C)C2)ccn1 [Example 158, N-((4-Fluoro-2-isopropyl-6-(2-methoxypyridin-4-yl)phenyl)carbamoyl)-1-isopropylazetidine-3-sulfonamide] | < 1000 nM | < 1000 nM
9 | Cn1ccc(CN2CC(S(=O)(=O)NC(=O)Nc3c4c(cc5c3CCC5)CCC4)C2)cc1=O [Example 141, N-((1,2,3,5,6,7-Hexahydro-s-indacen-4-yl)carbamoyl)-1-((1-methyl-2-oxo-1,2-dihydropyridin-4-yl)methyl)azetidine-3-sulfonamide, potassium salt] | < 1000 nM | 1000 to 10000 nM
10 | CCN1CC(S(=O)(=O)NC(=O)Nc2c3c(cc4c2CCC4)CCC3)C1 [Example 53, 1-Ethyl-N-((1,2,3,5,6,7-hexahydro-s-indacen-4-yl)carbamoyl) azetidine-3-sulfonamide, potassium salt] | < 1000 nM | < 1000 nM
11 | CC(CO)N1CC(S(=O)(=O)NC(=O)Nc2c3c(cc4c2CCC4)CCC3)C1 (stereo not drawn) [Example 130, N-((1,2,3,5,6,7-Hexahydro-s-indacen-4-yl)carbamoyl)-1-(1-hydroxypropan-2-yl)azetidine-3-sulfonamide, potassium salt] | < 1000 nM | < 1000 nM
12 | O=C(Nc1c2c(cc3c1CCC3)CCC2)NS(=O)(=O)C1CCN(C2CC2)C1 (stereo not drawn) [Example 39, 1-Cyclopropyl-N-((1,2,3,5,6,7-hexahydro-s-indacen-4-yl)carbamoyl)pyrrolidine-3-sulfonamide, potassium salt] | < 1000 nM | 1000 to 10000 nM
13 | COc1cc(-c2cc(F)cc(C(C)C)c2NC(=O)NS(=O)(=O)C2CN(C3CCC3)C2)ccn1 [Example 162, 1-Cyclobutyl-N-((4-fluoro-2-isopropyl-6-(2-methoxypyridin-4-yl)phenyl)carbamoyl)azetidine-3-sulfonamide] | < 1000 nM | < 1000 nM
14 | CC(C)NC(=O)N1CCC(S(=O)(=O)NC(=O)Nc2c3c(cc4c2CCC4)CCC3)CC1 [Example 5, 4-(N-((1,2,3,5,6,7-Hexahydro-s-indacen-4-yl)carbamoyl)sulfamoyl)-N-isopropylpiperidine-1-carboxamide, potassium salt] | < 1000 nM | 1000 to 10000 nM
15 | CCN1CC(S(=O)(=O)NC(=O)Nc2c(-c3ccnc(OC)c3)ccc3c2CCC3)C1 [Example 167, 1-Ethyl-N-((5-(2-methoxypyridin-4-yl)-2,3-dihydro-1H-inden-4-yl)carbamoyl)azetidine-3-sulfonamide] | < 1000 nM | < 1000 nM
16 | CC(C)n1cc(S(=O)(=O)NC(=O)Nc2c3c(cc4c2CCC4)CCC3)ncc1=O [Example 181, N-((1,2,3,5,6,7-Hexahydro-s-indacen-4-yl)carbamoyl)-4-isopropyl-5-oxo-4,5-dihydropyrazine-2-sulfonamide, sodium salt] | < 1000 nM | < 1000 nM
17 | CCC(CC)N1CC(S(=O)(=O)NC(=O)Nc2c3c(cc4c2CCC4)CCC3)C1 [Example 65, N-((1,2,3,5,6,7-Hexahydro-s-indacen-4-yl)carbamoyl)-1-(pentan-3-yl)azetidine-3-sulfonamide, potassium salt] | < 1000 nM | < 1000 nM
18 | O=C(Nc1c2c(cc3c1CCC3)CCC2)NS(=O)(=O)C1CN(CC2CCOC2)C1 (stereo not drawn) [Example 144, N-((1,2,3,5,6,7-Hexahydro-s-indacen-4-yl)carbamoyl)-1-((tetrahydrofuran-3-yl)methyl)azetidine-3-sulfonamide, potassium salt] | < 1000 nM | 1000 to 10000 nM
19 | COc1cc(-c2ccc3c(c2NC(=O)NS(=O)(=O)C2CN(Cc4cccnc4)C2)CCC3)ccn1 [Example 170, N-((5-(2-Methoxypyridin-4-yl)-2,3-dihydro-1H-inden-4-yl)carbamoyl)-1-(pyridin-3-ylmethyl)azetidine-3-sulfonamide] | 1000 to 10000 nM | 1000 to 10000 nM
20 | COc1cc(-c2ccc3c(c2NC(=O)NS(=O)(=O)C2CN(C4CCC4)C2)CCC3)ccn1 [Example 163, 1-Cyclobutyl-N-((5-(2-methoxypyridin-4-yl)-2,3-dihydro-1H-inden-4-yl)carbamoyl)azetidine-3-sulfonamide] | < 1000 nM | < 1000 nM
21 | CC(C)c1cc(F)cc(-c2ccnc(C#N)c2)c1NC(=O)NS(=O)(=O)c1ccc(=O)n(C(C)C)c1 [Example 172, N-((2-(2-cyanopyridin-4-yl)-4-fluoro-6-isopropylphenyl)carbamoyl)-1-isopropyl-6-oxo-1,6-dihydropyridine-3-sulfonamide] | < 1000 nM | < 1000 nM
22 | O=C(Nc1c2c(cc3c1CCC3)CCC2)NS(=O)(=O)C1CN(C2CCOCC2)C1 [Example 75, N-((1,2,3,5,6,7-Hexahydro-s-indacen-4-yl)carbamoyl)-1-(tetrahydro-2H-pyran-4-yl)azetidine-3-sulfonamide, potassium salt] | < 1000 nM | < 1000 nM
23 | O=C(Nc1c2c(cc3c1CCC3)CCC2)NS(=O)(=O)C1CNc2ccccc2C1 (stereo not drawn) [Example 35, N-((1,2,3,5,6,7-Hexahydro-s-indacen-4-yl)carbamoyl)-1,2,3,4-tetrahydroquinoline-3-sulfonamide, potassium salt] | < 1000 nM | > 10000 nM
24 | O=C(Nc1c2c(cc3c1CCC3)CCC2)NS(=O)(=O)C1CN(CC2CCC2)C1 [Example 126, 1-(Cyclobutylmethyl)-N-((1,2,3,5,6,7-hexahydro-s-indacen-4-yl)carbamoyl)azetidine-3-sulfonamide, potassium salt] | 1000 to 10000 nM | 1000 to 10000 nM
25 | O=C(Nc1c2c(cc3c1CCC3)CCC2)NS(=O)(=O)C1CN(Cc2cccnc2)C1 [Example 90, N-((1,2,3,5,6,7-Hexahydro-s-indacen-4-yl)carbamoyl)-1-(pyridin-3-ylmethyl)azetidine-3-sulfonamide, potassium salt] | < 1000 nM | < 1000 nM
26 | CC(C)(C)CN1CC(S(=O)(=O)NC(=O)Nc2c3c(cc4c2CCC4)CCC3)C1 [Example 135, N-((1,2,3,5,6,7-Hexahydro-s-indacen-4-yl)carbamoyl)-1-neopentylazetidine-3-sulfonamide, potassium salt] | < 1000 nM | 1000 to 10000 nM
27 | O=C(Nc1c2c(cc3c1CCC3)CCC2)NS(=O)(=O)C1CN(CCF)C1 [Example 108, 1-(2-Fluoroethyl)-N-((1,2,3,5,6,7-hexahydro-s-indacen-4-yl)carbamoyl)azetidine-3-sulfonamide, potassium salt] | < 1000 nM | < 1000 nM
